# Read-outs that look alike come from different tables or passages of the source.
# Tests used:
# intragastric pH = tested on: intragastric pH
# From the text: The estimated pharmacodynamic parameters are listed below: Using the pharmacokinetic parameters obtained above together with the pharmacodynamic parameters above, plasma concentrations as well as intragastric pH as a function of time were simulated for various dose regimens.
# [1] = for Famotidine (% control): glass vials
# From the text: Forced degradation conditions refer to conditions of elevated temperature, or elevated temperature and humidity, intended to accelerate the process of chemical degradation. Forced degradation conditions for a period of time are used to predict the effect of storage under more benign conditions (e.g., room temperature) for a longer period of time.
# After grinding, API mixture was stored in glass vials under the conditions indicated.
# [2] = Pharmacokinetic drug-drug interaction study of ibuprofen and famotidine in healthy male subjects; settings: for Bioequivalence when administered in combination compared to separate administration: 800 mg ibuprofen and 40 mg famotidine; for Difference of log-transformed AUC(last), alone versus in combination / Difference of log-transformed Cmax, alone versus in combination: bioequivalence test
# clinical = settings: male, human, plasma
# [3] = From the text: where V/F is the apparent volume of distribution, ka is the absorption rate constant, kel is the elimination rate constant and Tlag is the absorption lag time.
# [4] = remark: listed apart in the source
# Protocol: (§1) For each patient the median pH during a 24 hour period (or subperiod thereof) was calculated. To measure the effect of treatments for a group of individuals, the average or mean of the measured medians for several individuals was determined (i.e., average={[M1+M2 . . . Mx]/X} where “x” is the number of individuals in the group and each “M” is the median for an individual in the group).
# Samples were collected prior to initiation of dosing, and prior to administration of the second dose of study medication on Study Day 1 and Study Day 5 during both treatment periods.
# gastric pH = settings: for Amount by which TID dosing exceeded BID dosing, Gastric pH (24 h), mean of group / Amount by which TID dosing exceeded BID dosing, Upright Gastric pH, mean of group / Mean reduction in time with gastric pH below 3.5, TID compared to BID / Mean reduction in time with gastric pH below 4.0, TID compared to BID: 26.6 mg TID vs 40 mg BID; for Median pH (Upright), by subject / Fraction time pH < 4, by subject / Time pH < 4, by subject: individual subjects; for Fraction time pH < 4, by subject / Time pH < 4, by subject: 24 h; for Patients with 24-hour median gastric pH below 2.5: 13 subjects
# Protocol: Thirteen healthy subjects participated in the study.
# There was a washout of at least one week between administration of the last dose of Treatment Period 1 and administration of the first dose of Treatment Period 2.
# All doses of study medication were administered orally, on an open-label basis. Subjects were prohibited from taking any medications or interventions that decrease gastric acid secretion or neutralize gastric acid, and any medications that are known or suspected to cause dyspepsia or gastrointestinal ulcers, throughout the study period.
# (The first day of dosing for each treatment period is designated Study Day 1, and the last day of dosing is designated Study Day […]). Subjects were followed for 14 days after administration of their last dose of study medication.
# as §1
# [5] = fit to mean plasma data of 40 mg Pepcid single dose study
# [6] = 26.6 mg TID, 24 h of Study Day 1, all subjects n=13
# [7] = 26.6 mg TID, Study Day 1, all subjects
# [8] = 26.6 mg TID, Study Day 1, all subjects n=13
# [9] = 26.6 mg TID, Study Day 1, normal weight subjects
# [10] = 26.6 mg TID, Study Day 1, normal weight subjects n=9
# [11] = 40 mg BID, 24 h of Study Day 1, all subjects n=13
# [12] = 40 mg BID, Study Day 1, all subjects
# [13] = 40 mg BID, Study Day 1, all subjects n=13
# [14] = 40 mg BID, Study Day 1, normal weight subjects
# [15] = 40 mg BID, Study Day 1, normal weight subjects n=9
smiles,measurement,setting,value
"NC(N)=Nc1nc(CSCCC(N)=NS(N)(=O)=O)cs1 [famotidine, 3-[2-(diaminomethyleneamino)thiazol-4-ylmethylthio]-N-sulfamoyl propionamidine]",Emax (maximum intragastric pH),"intragastric pH; sigmoid Emax fit of digitized plasma concentration vs intragastric pH, one patient (Echizen and Ishizaki)",7.80
same,E0 (intragastric pH at time zero),"intragastric pH; sigmoid Emax fit, one patient",1.88
same,γ (shape factor),"intragastric pH; sigmoid Emax fit, one patient",4.80
same,EC50 (Pepcid concentration at one-half of Emax),"intragastric pH; sigmoid Emax fit, plasma concentration vs intragastric pH, one patient",0.0326 µg/mL
same,Famotidine (% control),[1]; 1 wk 40° C.,96.1 % control
same,Famotidine (% control),[1]; 1 wk 60° C.,121.0 % control
same,Famotidine Content (percent of target content),[1]; 2 weeks at 60° C.,98%
same,Famotidine (% control),[1]; 2 wks 60° C.,100.1 % control
same,Bioequivalence when administered in combination compared to separate administration,[2],bioequivalent
same,Kel (mean ± SD),"[2]; administered alone, single oral dose, 800 mg ibuprofen or 40 mg famotidine",0.19 ± 0.01
same,"Difference of log-transformed AUC(last), alone versus in combination",[2],−0.034
same,"Difference of log-transformed Cmax, alone versus in combination",[2],−0.08
same,Tmax,clinical; oral,2.17 ± 0.93 h
same,half-life,clinical; oral,3.49 ± 0.35 h
same,Tmax,clinical; po,1.67 ± 0.52 h
same,half-life,clinical; po,3.66 ± 0.19 h
same,V/F (apparent volume of distribution),[3]; fit to mean plasma data of 40 mg Pepcid single dose bioequivalence study (n=30),241.8 L
same,Tlag (absorption lag time),[3]; [5],0.3677 h
same,ka (absorption rate constant),[3]; [5],0.8133 h⁻¹
same,kel (elimination rate constant),[3]; [5],0.2643 h⁻¹
same,Plasma accumulation with TID dosing,"[4]; 26.6 mg TID vs 40 mg BID, day 5 trough",does not lead to plasma accumulation
same,Trough plasma concentration of famotidine (mean),"[4]; 26.6 mg TID, Day 1, prior to second dose",9.7 ng/mL
same,Trough plasma concentration of famotidine (mean),"[4]; 26.6 mg TID, Day 5, prior to second dose",15.7 ng/mL
same,Trough plasma concentration of famotidine (mean),"[4]; 40 mg BID, Day 1, prior to second dose",10.5 ng/mL
same,Trough plasma concentration of famotidine (mean),"[4]; 40 mg BID, Day 5, prior to second dose",15.7 ng/mL
same,"Amount by which TID dosing exceeded BID dosing, Gastric pH (24 h), mean of group",gastric pH; all subjects,0.3 pH Units
same,"Amount by which TID dosing exceeded BID dosing, Upright Gastric pH, mean of group",gastric pH; all subjects,0.5 pH Units
same,"Mean reduction in time with gastric pH below 3.5, TID compared to BID",gastric pH; all subjects,19.5 min
same,"Mean reduction in time with gastric pH below 4.0, TID compared to BID",gastric pH; all subjects,23.1 min
same,"Amount by which TID dosing exceeded BID dosing, Gastric pH (24 h), mean of group",gastric pH; normal weight group,0.5 pH Units
same,"Amount by which TID dosing exceeded BID dosing, Upright Gastric pH, mean of group",gastric pH; normal weight group,0.8 pH Units
same,"Mean reduction in time with gastric pH below 3.5, TID compared to BID",gastric pH; normal weight group,89.3 min
same,"Mean reduction in time with gastric pH below 4.0, TID compared to BID",gastric pH; normal weight group,89.9 min
same,Average time below pH 3.5,gastric pH; [6],693.5 min
same,Average time below pH 4.0,gastric pH; [6],783.4 Minutes
same,Average Absolute Deviation of 24 hour median gastric pH,gastric pH; [7],0.5
same,Average Absolute Deviation of pH in upright position,gastric pH; [7],0.7
same,Average Absolute Deviation of time below pH 3.5,gastric pH; [7],124.7 min
same,Average Absolute Deviation of time below pH 4.0,gastric pH; [7],111.9 min
same,Max-Min of pH values in the upright position,gastric pH; [7],2.4 pH units
same,Max-Min of time below pH 3.5,gastric pH; [7],436 min
same,Max-Min of time below pH 4.0,gastric pH; [7],459 min
same,Standard Deviation of 24 hour median gastric pH,gastric pH; [7],0.7
same,Max-Min of 24 hour median gastric pH,gastric pH; [8],1.9 pH units
same,Mean of 24 hour median gastric pH,gastric pH; [8],3.6 pH units
same,Mean of pH values taken in the upright position,gastric pH; [8],3.7
same,Range of 24 hour median gastric pH,gastric pH; [8],2.5-4.4
same,Range of pH values taken in the upright position,gastric pH; [8],2.3-4.7
same,Range of time below pH 3.5,gastric pH; [8],514-950 min
same,Range of time below pH 4.0,gastric pH; [8],589-1048 Minutes
same,Average Absolute Deviation of 24 hour median gastric pH,gastric pH; [9],0.5
same,Average Absolute Deviation of time below pH 3.5,gastric pH; [9],116.7 min
same,Average Absolute Deviation of time below pH 4.0,gastric pH; [9],105.4 min
same,Average Absolute Deviation of upright pH values,gastric pH; [9],0.9
same,Average time below pH 3.5,gastric pH; [9],662.7 min
same,Average time below pH 4.0,gastric pH; [9],764.2 Minutes
same,Max-Min of 24 hour median gastric pH,gastric pH; [9],1.9 pH units
same,Max-Min of time below pH 3.5,gastric pH; [9],436 min
same,Max-Min of time below pH 4.0,gastric pH; [9],459 min
same,Max-Min of upright pH values,gastric pH; [9],2.4 pH units
same,Mean of upright pH values,gastric pH; [9],3.8
same,Range of time below pH 3.5,gastric pH; [9],514-950 min
same,Range of time below pH 4.0,gastric pH; [9],589-1048 Minutes
same,Range of upright pH values,gastric pH; [9],2.3-4.7
same,Standard Deviation of 24 hour median gastric pH,gastric pH; [9],0.7
same,Mean of 24 hour median gastric pH,gastric pH; [10],3.6
same,Range of 24 hour median gastric pH,gastric pH; [10],2.5-4.4
same,Average time below pH 3.5,gastric pH; [11],713.0 min
same,Average time below pH 4.0,gastric pH; [11],806.5 Minutes
same,Average Absolute Deviation of 24 hour median gastric pH,gastric pH; [12],0.9
same,Average Absolute Deviation of pH in upright position,gastric pH; [12],1.0
same,Average Absolute Deviation of time below pH 3.5,gastric pH; [12],169.1 min
same,Average Absolute Deviation of time below pH 4.0,gastric pH; [12],158.8 min
same,Max-Min of pH values in the upright position,gastric pH; [12],3.3 pH units
same,Max-Min of time below pH 3.5,gastric pH; [12],706 min
same,Max-Min of time below pH 4.0,gastric pH; [12],710 min
same,Standard Deviation of 24 hour median gastric pH,gastric pH; [12],1.1
same,Max-Min of 24 hour median gastric pH,gastric pH; [13],3.3 pH units
same,Mean of 24 hour median gastric pH,gastric pH; [13],3.3 pH units
same,Mean of pH values taken in the upright position,gastric pH; [13],3.2
same,Range of 24 hour median gastric pH,gastric pH; [13],1.8-5.1
same,Range of pH values taken in the upright position,gastric pH; [13],1.8-5.1
same,Range of time below pH 3.5,gastric pH; [13],459-1165 min
same,Range of time below pH 4.0,gastric pH; [13],514-1224 Minutes
same,Average Absolute Deviation of 24 hour median gastric pH,gastric pH; [14],0.9
same,Average Absolute Deviation of time below pH 3.5,gastric pH; [14],175.1 min
same,Average Absolute Deviation of time below pH 4.0,gastric pH; [14],155.7 min
same,Average Absolute Deviation of upright pH values,gastric pH; [14],1.0
same,Average time below pH 3.5,gastric pH; [14],752.0 min
same,Average time below pH 4.0,gastric pH; [14],854.1 Minutes
same,Max-Min of 24 hour median gastric pH,gastric pH; [14],2.2 pH units
same,Max-Min of time below pH 3.5,gastric pH; [14],679 min
same,Max-Min of time below pH 4.0,gastric pH; [14],510 min
same,Max-Min of upright pH values,gastric pH; [14],2.8 pH units
same,Mean of upright pH values,gastric pH; [14],3.0
same,Range of time below pH 3.5,gastric pH; [14],486-1165 min
same,Range of time below pH 4.0,gastric pH; [14],714-1224 Minutes
same,Range of upright pH values,gastric pH; [14],1.8-4.6
same,Standard Deviation of 24 hour median gastric pH,gastric pH; [14],1.1
same,Mean of 24 hour median gastric pH,gastric pH; [15],3.1
same,Range of 24 hour median gastric pH,gastric pH; [15],1.8-4.0
same,"Median pH (Upright), by subject",gastric pH; BID 40 mg,1.8 pH Units
same,"Fraction time pH < 4, by subject",gastric pH; BID 40 mg,(69.8%)
same,"Time pH < 4, by subject",gastric pH; BID 40 mg,1005 min
same,Patients with 24-hour median gastric pH below 2.5,gastric pH; BID period (40 mg),three
same,"Difference in Median pH (Upright), TID period vs BID period",gastric pH; Subject 106,2.2 pH Units
same,"Difference in Median pH, TID period vs BID period",gastric pH; Subject 106,2.1 pH Units
same,"Difference in Time pH < 4, BID period vs TID period",gastric pH; Subject 106,268 min
same,"Median pH (Upright), by subject",gastric pH; TID 26.6 mg,4.0 pH Units
same,"Fraction time pH < 4, by subject",gastric pH; TID 26.6 mg,(51.2%)
same,"Time pH < 4, by subject",gastric pH; TID 26.6 mg,737 min
same,Patients with 24-hour median gastric pH below 2.5,gastric pH; TID period (26.6 mg),no patients
"CC(C)Cc1ccc(C(C)C(=O)O)cc1 (stereo not drawn) [ibuprofen, 2-(p-isobutylphenyl) propionic acid]",Bioequivalence when administered in combination compared to separate administration,[2],bioequivalent
same,"Difference of log-transformed AUC(last), alone versus in combination",[2],0.02
same,"Difference of log-transformed Cmax, alone versus in combination",[2],0.02
same,Tmax,clinical; oral,2.25 ± 1.89 h
same,Tmax,clinical; po,1.58 ± 0.49 h

# From patent US8067451B2, “Methods and medicaments for administration of ibuprofen” (Horizon Pharma USA, Inc., priority 2006, dated 2011)
